Measurements: patent US6784165B1, “Treatment of heart rhythm disturbances with N6-substituted-5′-(N-substituted) carboxamidoadenosines” (Aderis Pharmaceuticals, Inc., priority 1999, dated 2004)

Legend:
[1] = Oral bioavailability estimated from bradycardia AUC oral vs intravenous in conscious rats; format: in vivo, rat; details: male, Sprague-Dawley, rat, in vivo
Text: (§1) Concentration dose-effect curve data were fitted to a sigmoid curve using Graphpad PRIZM™ software to obtain the concentration or dose of test compound that produces 50% of the maximal obtainable response, in vitro EC50 or in vivo ED50 values, for activation of the adenosine A1 receptor. Responses measured to each dose were the plateau negative inotropic response to cumulative additions of test compound in the isolated left atria and the peak bradycardia in response to bolus intravenous injections of test compound in conscious rats. Oral bioavailability was estimated from pharmacodynamic responses using the expression: (Response AUCoral/Response AUCiv)(Doseiv/Doseoral), where Response AUC is the area under the curve for test compound-induced bradycardia over time.
(§2) Male Sprague-Dawley rats were anesthetized with sodium pentobarbital 50 mg/kg i.p., and indwelling catheters were surgically implanted in the carotid artery and jugular vein two days prior to each experiment. During all subsequent experiments, rats were conscious and unrestrained. The carotid artery cannula was attached to a pressure transducer and blood pressure was recorded continuously throughout each experiment using a Grass polygraph. Heart rate was derived from the blood pressure signal using a Grass tachygraph. The measured parameters were allowed from 30 to 90 minutes to stabilize before the administration of test compound.
(§3) Test compounds were administered either by oral gavage using a curved, bulbed oral dosing cannula, or by intravenous administration via the jugular vein indwelling catheter. Rats dosed orally were fasted overnight before dosing, with water available ad libitum. Because the heart rate responses following intravenous administration of test compound rapidly returned to baseline, more than one dose of test compound could be administered to each rat. However, the responses to oral administration of test compounds were of a prolonged duration and therefore only a single dose could be administered to each rat.
A comparison of the area under the bradycardia vs. time curve (AUC) following intravenous administration with the AUC following oral administration was used as a measure of oral bioavailability.

conscious rats = assay: Heart rate and blood pressure in conscious unrestrained rats (intravenous or oral); format: in vivo, rat
Description: as §2
Compound A was administered by intravenous administration via the jugular vein indwelling catheter or by oral gavage using a curved, bulbed oral dosing cannula. Food and water were available ad libitum.

[2] = tested on: guinea pig isolated heart; assay: Guinea pig isolated electrically paced heart: effect of heart rate on AV interval and heart block
Description: Guinea pig isolated hearts were prepared according to the method of Langendorff in which the coronary vasculature was perfused in a retrograde fashion at constant pressure via the aorta. Compound A was administered to the spontaneously beating hearts by infusion into the perfusion line supplying buffer to the coronary vasculature. The concentration of Compound A was adjusted by changes in the infusion rate and/or changes in the concentration of infusion solutions. The concentration of Compound A present in the perfusate was calculated by dividing the rate of Compound A infused by the coronary flow rate. Spontaneously beating heart rate and AV interval were recorded.
Guinea pig isolated hearts were prepared according to the methods described in Example 5. In the first portion of the experiment designed to determine the effect of heart rate on the negative dromotropic activity of Compound A, hearts were allowed to beat spontaneously or electrically paced either at 200 beats per minute (approximately 20% above the spontaneous rate) or at 300-360 beats per minute (approximately 80% above the spontaneous rate). Atrioventricular (AV) conduction interval (AV interval) was determined as the time from the atrial stimulus to the beginning of ventricular depolarization. The AV interval measurements were performed at each pacing rate with increased concentrations of Compound A as described in Example 5. Upon electrical pacing at 200 beats per minute, Compound A at a mean concentration of 3.9 nM produced a mean maximal 58% increase in AV interval, and heart block at a mean minimal concentration of 5.1 nM. […] The results are summarized in the table below, with data from spontaneously beating hearts included for comparative purposes: […]

adenosine A1 receptor [3] = biological target: T1, adenosine A1 receptor (Rattus norvegicus, UniProt P25099); assay: Negative inotropic response in electrically stimulated rat isolated left atria (isoproterenol-stimulated); set-up: from tissue; host or cells: whole animal (conscious Sprague-Dawley rats); details: plateau negative inotropic response, 1 Hz, isoproterenol 10^−8 M
T1 sequence (P25099 1-326): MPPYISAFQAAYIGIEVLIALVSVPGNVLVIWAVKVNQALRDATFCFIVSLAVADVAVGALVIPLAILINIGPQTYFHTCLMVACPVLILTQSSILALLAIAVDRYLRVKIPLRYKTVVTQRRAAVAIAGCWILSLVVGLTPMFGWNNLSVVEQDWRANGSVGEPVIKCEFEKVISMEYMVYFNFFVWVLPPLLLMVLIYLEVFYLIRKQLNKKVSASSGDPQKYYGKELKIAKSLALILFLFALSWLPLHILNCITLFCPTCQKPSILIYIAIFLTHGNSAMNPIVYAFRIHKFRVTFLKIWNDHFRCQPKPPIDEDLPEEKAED
Text: as §1
Male Sprague-Dawley rats weighing 200-350 grams were sacrificed and the hearts rapidly removed and placed in a warmed Krebs-Henseleit buffer solution. The left atria were dissected free from the hearts and suspended in 30 mL jacketed isolated organ baths filled with Krebs-Henseleit buffer, oxygenated with 95% O2/5% CO2 and maintained at 37° C. Tissues were connected to a force displacement transducer under a resting tension of 1 gram. Atria were stimulated electrically at 1 Hz, 1 msec duration and supramaximal voltage to produce regular contractions of tissue.
Adenosine A1 agonists were added to the baths at increasing cumulative concentrations until a maximal decrease in the force of contraction was obtained. Because adenosine A1 agonists have only a small direct negative inotropic action in rat atria, it was necessary to stimulate β-adrenergic receptors to produce positive inotropy in order to maximize the negative intropic response and thereby facilitate measurement. Under these conditions, adenosine A1 agonists acting at A1 receptors indirectly reduce the β-adrenergic mediated positive inotropy. Accordingly, the β-adrenergic agonist isoproterenol (10^−8 M) was added to the organ baths approximately 15 minutes before the addition of the adenosine A1 agonist.

adenosine A1 receptor [4] = biological target: T1, adenosine A1 receptor; assay: Peak bradycardia after bolus intravenous injection in conscious rats; format: in vivo; set-up: from tissue; host or cells: whole animal (conscious Sprague-Dawley rats); details: rat, bolus intravenous injections, read-out: ED50
Text: as §1, §2, §3

[5] = 0.1 μg/kg/min intravenously for 120 minutes

bioavailability [1]: 53% | EC50 (adenosine A1 receptor [3]): 15.5 nM | ED50 (adenosine A1 receptor [4]): 0.0083 µmol/kg
Structure (SMILES): CCNC(=O)[C@H]1O[C@@H](n2cnc3c(NC4CCCC4)ncnc32)[C@H](O)[C@@H]1O [Compound A, ethyl N^6-cyclopentyladenosine-5′-uronamide]
mean blood pressure (conscious rats; [5]): remained unchanged | mean decrease in heart rate (conscious rats; [5]): 34% | mean decrease in heart rate (conscious rats; 100 μg/kg oral): 40% | change in blood pressure (conscious rats; intravenous dose range 0.05 μg/kg/min to 0.1 μg/kg/min): no change | ED50 for induction of bradycardia (conscious rats; intravenously for 120 minutes, conscious rats): 0.1 µg/kg/min | change in blood pressure (conscious rats; oral dose range 30 μg/kg to 100 μg/kg): no change | mean maximal increase in AV interval ([2]; paced at 200 beats per minute, at 3.9 nM): 58% | Mean Concentration of Compound A Required to Produce Maximal AV Interval ([2]; paced at 200 bpm): 3.9 nM | Mean Minimal Concentration of Compound A Required to Produce Heart Block ([2]; paced at 200 bpm): 5.1 nM | mean maximal increase in AV interval ([2]; paced at 300-360 beats per minute, at 1.45 nM): 20% | Mean Concentration of Compound A Required to Produce Maximal AV Interval ([2]; paced at 300-360 bpm): 1.45 nM | Mean Minimal Concentration of Compound A Required to Produce Heart Block ([2]; paced at 300-360 bpm): 2.1 nM
